According to patent publication US7601735B2, “Antiviral compounds” (priority 2001, dated 2009):
“And” between values parts separate entries of the source, which are not always exact repeats. Equal entries are not always repeated. Where two headings read alike, the source gives them in different places.

Columns and labels:
[1] = tested on: BVDV NADL; assay: XTT cytopathicity assay, infected cells; assay type: cell-based, bovine viral diarrhoea virus; conditions: for protection of MDBK cells against virus-induced cell death (cytopathic effect of BVDV): FIG. 2
Procedure: The cells were washed twice in warm phosphate buffered saline (PBS) and then infected with BVDV NADL (100 pfu/well) in 100 μl of DMEM supplemented with 5% horse serum, 2 mM L-glutamine, 50 U/ml penicillin and 50 μg/ml streptomycin. Some wells were mock infected to act as controls. A further 100 μl of DMEM supplemented as above, but containing different concentrations of test compound or no compound was then added to each well. Triplicate wells were used for each compound concentration. In parallel, uninfected cells were treated with compound to assess cytotoxicity. The plates were then incubated at 37° C. with 5% CO2. […] The absorbance was then determined at 450 nm.

[2] = tested on: MDBK cells; assay: Cytotoxicity in plaque reduction assay, microscopic examination of the cell monolayers; assay type: cell-based, bovine
Procedure: (§1) MDBK cells were seeded into 6-well cell culture plates (Nunclon™, Nunc, Denmark) and allowed to grow to confluency. The cells are washed twice in warm phosphate buffered saline (PBS) and then infected with BVDV NADL (150 pfu/well) in 0.25 ml PBS containing 1% horse serum and 1 mM MgCl2. The cell culture plates were then incubated at 37° C. for one hour with 5% CO2 and the plates rocked every 15-20 minutes. The virus inoculum was then removed and replaced with 3.0 ml of 0.5% low-gelling temperature agarose overlay diluted in DMEM supplemented with 5% horse serum, 2 mM L-glutamine, 50 U/ml penicillin and 50 Lg/ml streptomycin and containing different concentrations of test compound or no compound. At least duplicate or triplicate wells were used for each concentration of test compound. The agarose was allowed to solidify at room temperature for 15 minutes and then incubated at 37° C. with 5% CO2. After 3 days incubation the cells were fixed by adding 1.5 ml of a […] solution over the agar overlay and leaving overnight. The agar was gently removed from the wells and the cells stained with 0.3% methylene blue in PBS for 10 minutes at room temperature. The excess stain was removed and the cells washed with PBS prior to drying of the plates and counting of the viral plaques microscopically. Dose response lines were plotted from the mean number of plaques present versus the log of the concentration of the compound. The 50% Inhibitory concentration (IC50) was computed after linear regression analysis.
(§2) There was no sign of cytotoxicity at concentrations up to 1000 μM as judged by microscopic examination of the cell monolayers.

[3] = tested on: BVDV NADL; assay: Plaque reduction assay in MDBK cells; assay type: cell-based, bovine viral diarrhoea virus; conditions: for inhibition of formation of BVDV plaques / IC50: MDBK cells; for inhibition of formation of BVDV plaques: FIG. 1; for concentrations at which only partial inhibition was shown: parallel plaque reduction experiments
Procedure: MDBK cells (NBL-1) (ATCC CCL22) derived from bovine kidney and cytopathic (cp) BVDV (strain NADL) (ATCC VR-534) were available from the American Type Culture Collection (ATCC).
as §1

[4] = tested on: BVDV; assay: XTT cytopathicity assay, Bucast in combination with interferon alpha; assay type: cell-based, bovine viral diarrhoea virus
Procedure: (§3) MDBK cells were seeded into 96-well cell culture plates (Costar® 3596, Corning Incorp., USA) and allowed to grow to confluency. The cells were washed twice in warm phosphate buffered saline (PBS) and then infected with BVDV NADL (100 pfu/well) in 100 μl of DMEM supplemented with 5% horse serum, 2 mM L-glutamine, 50 U/ml penicillin and 50 μg/ml streptomycin. Some wells were mock infected to act as controls. A further 100 μl of DMEM supplemented as above, but containing different concentrations of test compound or no compound was then added to each well. Triplicate wells were used for each compound concentration. In parallel, uninfected cells were treated with compound to assess cytotoxicity. The plates were then incubated at 37° C. with 5% CO2. After 6 days 25 μl of a 1 mg/ml 2,3-bis[2-methoxy-4-nitro-5-sulphophenyl]-2H-tetrazolium-5-carboxanilide (XTT)/25 μM phenazine methosulphate (PMS) solution (XTT and PMS purchased from Sigma, Poole, Dorset, UK) was then added to each well and the plates incubated for 2 hours at 37° C. with 5% CO2. The absorbance was then determined at 450 nm. Data was plotted as O. D versus the log of the concentration of the compound and the 50% inhibitory concentration (IC50) computed.
The combination indexes (CI) were calculated using the formula of Suhnel (Antiviral Research, 13, 23-40). A CI value of less than 1 indicates a synergistic interaction and values of less than 0.8 are considered to indicate a statistically significant result.

[5] = tested on: MDBK cells; assay: XTT cytopathicity assay, uninfected cells (cytotoxicity); assay type: cell-based, bovine; conditions: for CC50: uninfected MDBK cells, 6 days
Procedure: as §3

[6] = Cytotoxicity in plaque reduction assay, microscopic examination of the cell monolayers; assay type: cell-based, bovine; conditions: bovine
Procedure: as §1, §2

[7] = XTT cytopathicity assay, uninfected cells (cytotoxicity); assay type: cell-based, bovine; conditions: bovine
Procedure: as §3

[8] = individual experiments, MOI = 0.01, read-out: *IC50
[9] = MDBK cell monolayers, plaque reduction assay
[10] = individual experiments, 150 pfu/well, 3 days, read-out: IC50
[11] = mean of experiments, read-out: Mean IC50 (μM) ± SD

CCCC(=O)O[C@H]1CN2CC[C@H](O)[C@@H]2[C@@H](O)[C@@H]1O [Bucast, 60-butanoylcastanospermine]
protection of MDBK cells against virus-induced cell death (cytopathic effect of BVDV) [1]: protected MDBK cells against virus-induced cell death
IC50 ([1]; MOI 0.0001, read-out: IC50): 5 µM
IC50 ([1]; MOI 0.001, read-out: IC50): 40 µM
IC50 ([1]; MOI 0.01, read-out: IC50): 60 µM and 30 µM
IC50 ([1]; MOI 0.1, read-out: IC50): 200 µM and 170 µM
IC50 [1, 8]: 60 µM (2×) and 30 µM and 70 µM and 40 µM
IC50 ([1]; mean, MOI = 0.01, read-out: mean IC50): 36 µM and 52 µM
CC50 [2, 9]: > 1000 µM
inhibition of formation of BVDV plaques [3]: inhibited the formation of BVDV plaques in a dose dependent manner
IC50 [3, 10]: 10 µM (2×) and 20 µM and 25 µM
IC50 [3, 11]: 16.2 µM
times more potent than castanospermine ([3]; ratio of mean IC50): approximately 13 times
IC50 ([4]; fixed interferon α 0 IRU/well): 52 ± 16.4 µM
IC50 ([4]; fixed interferon α 0.125 IRU/well): 13 µM
IC50 ([4]; fixed interferon α 0.25 IRU/well): 4 µM
IC50 ([4]; fixed interferon α 0.5 IRU/well): 3 µM
cytotoxicity to uninfected treated cells ([5]; FIG. 2): no cytotoxicity
CC50 [5]: > 300 µM

OC1CN2CC[C@H](O)[C@@H]2C(O)[C@@H]1O (stereo partly drawn) [Castanospermine, [1S-(1α, 6β,7α,8β,8αβ)]-octahydro-1,6,7,8-indoli-zinetetrol]
IC50 ([1]; Bovine viral diarrhea virus isolates and strains, in Bos taurus, individual experiments, MOI = 0.01, read-out: *IC50): 300 µM
IC50 ([1]; Bovine viral diarrhea virus isolates and strains, in Bos taurus, read-out: mean IC50 (μM), mean, MOI = 0.01): 400 µM
protection of MDBK cells against virus-induced cell death (cytopathic effect of BVDV) [1]: protected MDBK cells against virus-induced cell death
IC50 [1, 8]: 500 µM
CC50 at 3 days [6]: > 1000 µM
IC50 ([3]; Bovine viral diarrhea virus isolates and strains, MDBK, in Bos taurus, 72 h, individual experiments, 150 pfu/well, 3 days, read-out: IC50): 180 µM
IC50 ([3]; Bovine viral diarrhea virus isolates and strains, MDBK, in Bos taurus, mean of experiments, read-out: Mean IC50 (μM) ± SD): 217 µM
inhibition of formation of BVDV plaques [3]: inhibited the formation of BVDV plaques in a dose dependent manner
IC50 [3, 10]: 190 µM and 280 µM
CC50 at 6 days [7]: > 1000 µM
cytotoxicity to uninfected treated cells [5]: no cytotoxicity

CCCCN1C[C@H](O)[C@@H](O)[C@H](O)[C@H]1CO [N-Butyl-DNJ, N-butyl-deoxynojirimycin]
protection of MDBK cells against virus-induced cell death (cytopathic effect of BVDV) [1]: neither N-butyl-DNJ or N-nonyl-DNJ demonstrated any protection
IC50 ([1]; MOI 0.0001, read-out: IC50): 55 µM
IC50 ([1]; MOI 0.001, read-out: IC50): > 300 µM
IC50 ([1]; MOI 0.01, read-out: IC50): > 300 µM
IC50 ([1]; MOI 0.1, read-out: IC50): > 300 µM
IC50 [1, 8]: > 1000 µM
fold less potent than Bucast ([1]; very low MOI): 10 fold
CC50 [2, 9]: > 300 µM
IC50 [3, 10]: > 300 µM and 250 µM
concentrations at which only partial inhibition was shown [3]: > 100 µM
cytotoxicity to uninfected treated cells ([5]; FIG. 2): no cytotoxicity
CC50 [5]: > 1000 µM

CCCCCCCCCN1C[C@H](O)[C@@H](O)[C@H](O)[C@H]1CO [N-Nonyl-DNJ, N-nonyl-deoxynojirimycin]
protection of MDBK cells against virus-induced cell death (cytopathic effect of BVDV) [1]: neither N-butyl-DNJ or N-nonyl-DNJ demonstrated any protection
IC50 [1, 8]: 60 µM and > 100 µM
CC50 (μM) [2, 9]: Toxic @ 300
cytotoxicity to cells ([2]; at a concentration of 300 μM): clearly cytotoxic
IC50 [3, 10]: 90 µM and 120 µM
IC50 [3, 11]: 105 µM
concentrations at which only partial inhibition was shown [3]: > 300 µM
cytotoxicity to uninfected treated cells ([5]; FIG. 2): clearly cytotoxic
CC50 [5]: 120 µM

Interferon α
IC50 ([1]; interferon alone): 1.3 interferon resistance units (IRU) per well
IC50 Interferon α (IRU/well) ([4]; fixed Bucast 0 μM): 1.3 IRU/well
IC50 Interferon α (IRU/well) ([4]; fixed Bucast 5 μM): 0.22 IRU/well
IC50 Interferon α (IRU/well) ([4]; fixed Bucast 10 μM): 0.12 IRU/well
